In patent US11697646B2, “Triazole N-linked carbamoyl cyclohexyl acids as LPA antagonists” (BRISTOL-MYERS SQUIBB COMPANY, priority 2017, dated 2023) one finds IC50 data, which are given here for 29 compounds.

Structures are written as SMILES.

Usually IC50 stands for the midpoint of a concentration-inhibition curve.

The target of the first experiment is T1, human LPA1 (Homo sapiens, UniProt Q92633).
T1 construct: expressed in transfected cells; host or cells: Chinese hamster ovary (CHO) cells
T1 sequence (Q92633 whole entry): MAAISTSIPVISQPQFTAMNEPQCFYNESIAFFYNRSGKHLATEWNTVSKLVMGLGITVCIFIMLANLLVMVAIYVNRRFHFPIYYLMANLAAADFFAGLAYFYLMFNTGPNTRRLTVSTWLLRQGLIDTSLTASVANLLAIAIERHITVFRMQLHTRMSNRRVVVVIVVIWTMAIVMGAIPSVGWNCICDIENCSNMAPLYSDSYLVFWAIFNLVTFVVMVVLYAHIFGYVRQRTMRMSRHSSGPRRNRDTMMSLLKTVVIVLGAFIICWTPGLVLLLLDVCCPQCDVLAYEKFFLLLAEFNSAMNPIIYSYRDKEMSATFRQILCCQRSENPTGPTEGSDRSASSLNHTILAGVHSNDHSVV
The experiment is described as follows: LPA1 functional antagonist assay (calcium flux). It is filed as cell-based. The following applies: CHO cells overexpressing human LPA1; calcium flux induced by 10 nM LPA; read-out: hLPA1 IC50. As for the experimental part:
The effectiveness of compounds of the present invention as LPA1 inhibitors can be determined in an LPA1 functional antagonist assay as follows:
The cells were then equilibrated to room temperature for 30 minutes before the assay. […] IC50 values were determined by fitting data to a 4-parameter logistic equation (GraphPad Prism, San Diego Calif.).
In general terms: A change in cytosolic calcium serves as a functional read-out for many receptors and channels.
Take `Cc1nc(-c2nnn(C)c2CNC(=O)N[C@H](C)c2ccccc2)ccc1O[C@H]1CCC[C@H](C(=O)O)C1` [Example 130, (1S,3S)-3-((2-methyl-6-(1-methyl-5-((3-((R)-1-phenylethyl)ureido)methyl)-1H-1,2,3-triazol-4-yl)pyridin-3-yl)oxy)cyclohexane-1-carboxylic acid]: the IC50 was 275 nM.

As for `CCCOC(=O)Nc1c(-c2ccc(O[C@H]3CCC[C@H](C(=O)O)C3)c(CC)n2)nnn1C` [Example 233, (1S,3S)-3-[(2-ethyl-6-{1-methyl-5-[(propoxycarbonyl)amino]-1H-1,2,3-triazol-4-yl}pyridin-3-yl)oxy]cyclo-hexane-1-carboxylic acid], the 50% inhibitory concentration (IC50) came out at 1040 nM.

Take `CCCCOC(=O)N(C)Cc1c(-c2ccc(O[C@H]3CCC[C@H](C(=O)O)C3)cn2)nnn1C` [Example 14, (1S,3S)-3-((6-(5-(((butoxycarbonyl)(methyl)amino)methyl)-1-methyl-1H-1,2,3-triazol-4-yl)pyridin-3-yl)oxy)cyclohexane-1-carboxylic acid]: the half-inhibitory concentration (IC50) was 1020 nM.

For the compound `Cc1nc(-c2nnn(C)c2CNC(=O)N(C)C(C)(C)C)ccc1O[C@H]1CCC[C@H](C(=O)O)C1` [Example 133, (1S,3S)-3-((6-(5-((3-(tert-butyl)-3-methylureido)methyl)-1-methyl-1H-1,2,3-triazol-4-yl)-2-methylpyridin-3-yl)oxy)cyclohexane-1-carboxylic acid], the IC50 worked out at 1090 nM.

Take `Cn1nnc(-c2ccc(O[C@H]3CCC[C@H](C(=O)O)C3)cn2)c1NC(=O)OCC1CCCCC1` [Example 86, (1S,3S)-3-((6-(5-(((cyclohexyl-methoxy)carbonyl)amino)-1-methyl-1H-1,2,3-triazol-4-yl)pyridin-3-yl)oxy)cyclohexane-1-carboxylic acid]: the IC50 was 36 nM.

Turning to `Cc1cccc(COC(=O)NCc2c(-c3ccc(O[C@H]4CCC[C@H](C(=O)O)C4)c(C)n3)nnn2C)c1` [Example 19, (1S,3S)-3-((2-methyl-6-(1-methyl-5-(((((3-methylbenzyl)oxy)carbonyl)amino)methyl)-1H-1,2,3-triazol-4-yl)pyridin-3-yl)oxy)cyclohexane-1-carboxylic acid], the half-maximal inhibitory concentration (IC50) amounted to 4 nM.

Consider `Cc1nc(-c2nnn(C)c2NC(=O)OCC(C)C)ccc1O[C@H]1CCC[C@H](C(=O)O)C1` [Example 78, (1S,3S)-3-((6-(5-((isobutoxy-carbonyl)amino)-1-methyl-1H-1,2,3-triazol-4-yl)-2-methylpyridin-3-yl)oxy)cyclohexane-1-carboxylic acid], for which the 50% inhibitory concentration (IC50) came to 29 nM.

With `Cc1nc(-c2nnn(C)c2NC(=O)OCC(C)(C)C)ccc1O[C@H]1CCC[C@H](C(=O)O)C1` [Example 67, (1S,3S)-3-((2-methyl-6-(1-methyl-5-(((neopentyloxy)carbonyl)amino)-1H-1,2,3-triazol-4-yl)pyridin-3-yl)oxy)cyclohexane-1-carboxylic acid], the IC50 worked out at 72 nM.

`CCCCCOC(=O)N(C)Cc1c(-c2ccc(O[C@H]3CCC[C@H](C(=O)O)C3)cn2)nnn1C` [Example 15, (1S,3S)-3-((6-(1-methyl-5-((methyl((pentyloxy)carbonyl)amino)methyl)-1H-1,2,3-triazol-4-yl)pyridin-3-yl)oxy)cyclohexane-1-carboxylic acid]: the half-inhibitory concentration (IC50) was 130 nM.

As to `CC(C)COC(=O)NCc1c(-c2ccc(O[C@H]3CCC[C@H](C(=O)O)C3)cn2)nnn1C` [Example 29, (1S,3S)-3-((6-(5-(((isobutoxycarbonyl)amino)methyl)-1-methyl-1H-1,2,3-triazol-4-yl)pyridin-3-yl)oxy)cyclohexane-1-carboxylic acid], the IC50 amounted to 179 nM.

For `Cc1nc(-c2nnn(C)c2CNC(=O)N(C)[C@@H](C)c2ccccc2)ccc1O[C@H]1CCC[C@H](C(=O)O)C1` [Example 132, (1S,3S)-3-((2-methyl-6-(1-methyl-5-((3-methyl-3-((S)-1-phenylethyl)ureido)methyl)-1H-1,2,3-triazol-4-yl)pyridin-3-yl)oxy)cyclohexane-1-carboxylic acid], the 50% inhibitory concentration (IC50) worked out at 276 nM.

Take `CCC1(COC(=O)NCc2c(-c3ccc(O[C@H]4CCC[C@H](C(=O)O)C4)c(C)n3)nnn2C)CCC1` [Example 57, (1S,3S)-3-((6-(5-(((((1-ethylcyclobutyl)methoxy)carbonyl)amino)methyl)-1-methyl-1H-1,2,3-triazol-4-yl)-2-methylpyridin-3-yl)oxy)cyclohexane-1-carboxylic acid]: the IC50 is 68 nM.

Take `C[C@@H](OC(=O)NCc1c(-c2ccc(O[C@H]3CCC[C@H](C(=O)O)C3)cn2)nnn1C)c1ccccc1` [Example 10, (1S,3S)-3-((6-(1-methyl-5-(((((R)-1-phenylethoxy)carbonyl)amino)methyl)-1H-1,2,3-triazol-4-yl)pyridin-3-yl)oxy)cyclohexane-1-carboxylic acid]: the IC50 was 104 nM.

With `CCCCOC(=O)Nc1c(-c2nc(C)c(O[C@H]3CCC[C@H](C(=O)O)C3)cc2F)nnn1C` [Example 217], the half-inhibitory concentration (IC50) is 72 nM.

As for `Cc1nc(-c2nnn(C)c2CNC(=O)NC(C)C(C)C)ccc1O[C@H]1CCC[C@H](C(=O)O)C1` (single isomer, unassigned) [Example 126], the IC50 stood at 611 nM.

On to `CC(COC(=O)NCc1c(-c2ccc(O[C@H]3CCC[C@H](C(=O)O)C3)cn2)nnn1C)CC(F)(F)F` (mixture of isomers) [Example 31, (1S,3S)-3-((6-(1-methyl-5-((((4,4,4-trifluoro-2-methylbutoxy)carbonyl)amino)methyl)-1H-1,2,3-triazol-4-yl)pyridin-3-yl)oxy)cyclohexanecarboxylic acid], for which the IC50 came out at 102 nM.

In the case of `Cn1nnc(-c2ccc(O[C@H]3CCC[C@H](C(=O)O)C3)cn2)c1CNC(=O)OCC1(C)CC1` [Example 52, (1S,3S)-3-((6-(1-methyl-5-(((((1-methylcyclopropyl)methoxy)carbonyl)amino)methyl)-1H-1,2,3-triazol-4-yl)pyridin-3-yl)oxy)cyclohexane-1-carboxylic acid], the IC50 worked out at 81 nM.

Take `CC(C)CCOC(=O)Nc1c(-c2ccc(O[C@H]3CCC[C@H](C(=O)O)C3)cn2)nnn1C` [Example 85, (1S,3S)-3-((6-(5-(((isopentyloxy)carbonyl)amino)-1-methyl-1H-1,2,3-triazol-4-yl)pyridin-3-yl)oxy)cyclohexane-1-carboxylic acid]: the half-maximal inhibitory concentration (IC50) amounted to 115 nM.

On to `Cc1nc(-c2nnn(C)c2NC(=O)OCC2CC2)ccc1O[C@H]1CCC[C@H](C(=O)O)C1` [Example 74, (1S,3S)-3-((6-(5-(((cyclopropyl-methoxy)carbonyl)amino)-1-methyl-1H-1,2,3-triazol-4-yl)-2-methyl-pyridin-3-yl)oxy)cyclohexane-1-carboxylic acid], for which the IC50 was determined as 14 nM.

Consider `Cn1nnc(-c2ccc(O[C@H]3CCC[C@H](C(=O)O)C3)c(C(F)(F)F)n2)c1CNC(=O)OC1CCCC1` [Example 96], for which the IC50 is 33 nM.

As for `Cn1nnc(-c2ccc(O[C@@H]3CCC[C@@H](C(=O)O)C3)cc2)c1CNC(=O)OCc1ccccc1` (racemic) [Example 40, (±)-trans-3-(4-(5-((((benzyloxy)carbonyl)amino)methyl)-1-methyl-1H-1,2,3-triazol-4-yl)phenoxy)cyclohexane-1-carboxylic acid], the concentration for half-maximal inhibition (IC50) turned out to be 664 nM.

Turning to `Cc1nc(-c2nnn(C)c2CNC(=O)OC(C)(C)C)ccc1O[C@H]1CCC[C@H](C(=O)O)C1` [Example 30, (1S,3S)-3-((6-(5-(((tert-butoxycarbonyl)amino)methyl)-1-methyl-1H-1,2,3-triazol-4-yl)-2-methylpyridin-3-yl)oxy)cyclohexane-1-carboxylic acid], the half-maximal inhibitory concentration (IC50) is 120 nM.

In the case of `CCCOC(=O)Nc1c(-c2ccc(O[C@H]3CCC[C@H](C(=O)O)C3)cn2)nnn1C` [Example 221, (1S,3S)-3-((6-(1-methyl-5-((pro-poxy-carbonyl)amino)-1H-1,2,3-triazol-4-yl)pyridin-3-yl)oxy)cyclohexane-1-carboxylic acid], the 50% inhibitory concentration (IC50) is 42 nM.

With `Cc1nc(-c2nnn(C)c2CNC(=O)N(C)C(C)C)ccc1O[C@H]1CCC[C@H](C(=O)O)C1` [Example 134, (1S,3S)-3-((6-(5-((3-isopropyl-3-methylureido)methyl)-1-methyl-1H-1,2,3-triazol-4-yl)-2-methylpyridin-3-yl)oxy)cyclohexane-1-carboxylic acid], the IC50 was 519 nM.

As for `Cc1nc(-c2nnn(C)c2CNC(=O)N(C)CC2CCC2)ccc1O[C@H]1CCC[C@H](C(=O)O)C1` [Example 108, (1S,3S)-3-((6-(5-((3-(cyclobutylmethyl)-3-methylureido)methyl)-1-methyl-1H-1,2,3-triazol-4-yl)-2-methylpyridin-3-yl)oxy)cyclohexanecarboxylic acid], the IC50 was determined as 82 nM.

Take `Cc1nc(-c2nnn(C)c2CNC(=O)OCC2CC2(F)F)ccc1OC1CCCC(C(=O)O)C1` (single isomer, unassigned) [Example 207]: the IC50 is 44 nM.

The experiment is the same for the next values; noted with them: human LPA1 functional antagonist assay; read-out: hLPA1 IC50.
As for `Cc1nc(-c2nnn(C)c2CNC(=O)OC2CCC2)ccc1O[C@H]1CCC[C@H](C(=O)O)C1` [Example 177, (1S,3S)-3-((6-(5-(((cyclobutoxycarbonyl)amino)methyl)-1-methyl-1H-1,2,3-triazol-4-yl)-2-methyl-pyridin-3-yl)oxy)cyclohexane-1-carboxylic acid], the IC50 came out at 148 nM.

For `CC[C@@H](C)OC(=O)NCc1c(-c2ccc(O[C@H]3CCC[C@H](C(=O)O)C3)c(C)n2)nnn1C` [Example 172, (1S,3S)-3-((6-(5-((((R)-sec-butoxycarbonyl)amino)methyl)-1-methyl-1H-1,2,3-triazol-4-yl)-2-methyl-pyridin-3-yl)oxy)cyclohexane-1-carboxylic acid], the IC50 is 152 nM.

`Cc1nc(-c2nnn(C)c2CNC(=O)OCCC(C)(C)C)cnc1O[C@H]1CCC[C@H](C(=O)O)C1` [Example 158, (1S,3S)-3-((5-(5-((((3,3-dimethyl-butoxy)carbonyl)amino)methyl)-1-methyl-1H-1,2,3-triazol-4-yl)-3-methylpyrazin-2-yl)oxy)cyclo-hexane-1-carboxylic acid]: the half-maximal inhibitory concentration (IC50) is 76 nM.
